Experimental data taken from patent US20240218022A1, “ANTI-VISTA MACROCYCLIC PEPTIDES AND COMPOSITIONS” (BRISTOL-MYERS SQUIBB COMPANY, priority 2022, published 2024).
Positions of bridges follow the written chain, without caps; N, C: chain ends. Non-standard residues stand in square brackets, D forms with d. Residues, ends and D or L forms follow the SMILES beside them. Phe(3-Me) = Cc1cccc(C[C@H](N)C(=O)O)c1; Cit = NC(=O)NCCC[C@H](N)C(=O)O; Ahp(2) = CCCCC[C@H](N)C(=O)O; NMeNle = CCCC[C@H](NC)C(=O)O; NHexGly = CCCCCCNCC(=O)O; Nle = CCCC[C@H](N)C(=O)O; Orn = NCCC[C@H](N)C(=O)O

Target: T1, mouse VISTA (mVISTA) (Mus musculus, UniProt Q9D659)
T1 construct: expressed in transfected cells; host or cells: Human embryonic kidney 293T cells
T1 sequence (Q9D659 33-308): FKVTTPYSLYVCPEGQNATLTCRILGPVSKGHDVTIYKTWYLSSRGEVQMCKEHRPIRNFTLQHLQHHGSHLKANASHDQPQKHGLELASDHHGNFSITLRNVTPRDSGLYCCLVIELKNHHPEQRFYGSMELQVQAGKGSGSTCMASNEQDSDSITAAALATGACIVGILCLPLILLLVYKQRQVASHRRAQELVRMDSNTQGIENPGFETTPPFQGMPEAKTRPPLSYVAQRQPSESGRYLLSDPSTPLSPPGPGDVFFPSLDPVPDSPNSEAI
Test: Cell-Based Binding High-Content Assay For mVISTA (HC CBA mVISTA)
Settings: the 19th table, scaffold drawing 22; read-out: HC CBA mVISTA IC50
How it was run: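 This high-content binding assay uses HEK293T cells expressing murine VISTA, measuring displacement of 2 nM biotinylated peptide by fluorescent streptavidin imaging. IC50 values come from four-parameter logistic fitting.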

Row | IC50 [nM] | Compound
1 | 6.2 | CCCCCCN1CC(=O)N[C@@H](Cc2ccc(O)cc2)C(=O)N[C@@H](CCCC)C(=O)N[C@@H](CC(=O)O)C(=O)N[C@@H](CCCN)C(=O)N[C@@H](CC(C)C)C(=O)N[C@@H](CCCCC)C(=O)N2CCC[C@H]2C(=O)N[C@@H](C(C)C)C(=O)N[C@@H](CC(=O)O)C(=O)N[C@H](C(=O)N[C@@H](CC(=O)O)C(N)=O)CSCC(=O)N[C@@H](Cc2cccc(C)c2)C(=O)N[C@@H](Cc2ccc(O)cc2)C(=O)N[C@@H](CC(=O)O)C1=O [compound 1430] ({CH2CO}-[Phe(3-Me)]YD[NHexGly]Y[Nle]D[Orn]L[Ahp(2)]PVDCD-NH2; thioether N-14)
2 | 2.5 | CCCCCCN1CC(=O)N[C@@H](Cc2ccc(O)cc2)C(=O)N[C@@H](CCCC)C(=O)NCC(=O)N[C@@H](CCCNC(=N)N)C(=O)N[C@@H](CC(C)C)C(=O)N[C@@H](CCCCC)C(=O)N2CCC[C@H]2C(=O)N[C@@H](C(C)C)C(=O)N[C@@H](CC(=O)O)C(=O)N[C@H](C(=O)NCC(=O)O)CSCC(=O)N[C@@H](Cc2cccc(C)c2)C(=O)N[C@@H](Cc2ccc(O)cc2)C(=O)N[C@@H](CC(=O)O)C1=O [compound 1431] ({CH2CO}-[Phe(3-Me)]YD[NHexGly]Y[Nle]GRL[Ahp(2)]PVDCG-OH; thioether N-14)
3 | 3 | CCCCCCN1CC(=O)N[C@@H](Cc2ccc(O)cc2)C(=O)N[C@@H](CC(C)C)C(=O)N[C@@H](CC(N)=O)C(=O)N[C@@H](CCCNC(=N)N)C(=O)N[C@@H](CC(C)C)C(=O)N[C@@H](CCCCC)C(=O)N2CCC[C@H]2C(=O)N[C@@H](C(C)C)C(=O)N[C@@H](C(C)C)C(=O)N[C@H](C(=O)NCC(=O)O)CSCC(=O)N[C@@H](Cc2cccc(C)c2)C(=O)N[C@@H](Cc2ccc(O)cc2)C(=O)N[C@@H](CC(=O)O)C1=O [compound 1432] ({CH2CO}-[Phe(3-Me)]YD[NHexGly]YLNRL[Ahp(2)]PVVCG-OH; thioether N-14)
4 | 20.4 | CCCCCCN1CC(=O)N[C@@H](Cc2ccc(O)cc2)C(=O)N[C@@H](CC(C)C)C(=O)N[C@@H](CC(N)=O)C(=O)N[C@@H](CCCNC(=N)N)C(=O)N[C@@H](CC(C)C)C(=O)N[C@@H](CCCCC)C(=O)N2CCC[C@H]2C(=O)N[C@@H](C(C)C)C(=O)N[C@@H](C(C)C)C(=O)N[C@H](C(=O)N[C@@H](CO)C(=O)O)CSCC(=O)N[C@@H](Cc2cccc(C)c2)C(=O)N[C@@H](Cc2ccc(O)cc2)C(=O)N[C@@H](CC(=O)O)C1=O [compound 1434] ({CH2CO}-[Phe(3-Me)]YD[NHexGly]YLNRL[Ahp(2)]PVVCS-OH; thioether N-14)
5 | 9.4 | CCCCCCN1CC(=O)N[C@@H](Cc2ccc(O)cc2)C(=O)N[C@@H](CCCC)C(=O)NCC(=O)N[C@@H](CCCNC(=N)N)C(=O)N[C@@H](CC(C)C)C(=O)N[C@@H](CCCCC)C(=O)N2CCC[C@H]2C(=O)N[C@@H](C(C)C)C(=O)N[C@@H](CC(=O)O)C(=O)N[C@H](C(=O)N[C@@H](CO)C(=O)O)CSCC(=O)N[C@@H](Cc2cccc(C)c2)C(=O)N[C@@H](Cc2ccc(O)cc2)C(=O)N[C@@H](CC(=O)O)C1=O [compound 1435] ({CH2CO}-[Phe(3-Me)]YD[NHexGly]Y[Nle]GRL[Ahp(2)]PVDCS-OH; thioether N-14)
6 | 10.6 | CCCCCCN1CC(=O)N[C@@H](Cc2ccc(O)cc2)C(=O)N[C@@H](CCCC)C(=O)N[C@@H](CC(=O)O)C(=O)N[C@@H](CCCN)C(=O)N[C@@H](CC(C)C)C(=O)N[C@@H](CCCCC)C(=O)N2CCC[C@H]2C(=O)N[C@@H](C(C)C)C(=O)N[C@@H](CC(=O)O)C(=O)N[C@H](C(=O)N[C@@H](CO)C(N)=O)CSCC(=O)N[C@@H](Cc2cccc(C)c2)C(=O)N[C@@H](Cc2ccc(O)cc2)C(=O)N[C@@H](CC(=O)O)C1=O [compound 1436] ({CH2CO}-[Phe(3-Me)]YD[NHexGly]Y[Nle]D[Orn]L[Ahp(2)]PVDCS-NH2; thioether N-14)
7 | 18.2 | CCCCCCN1CC(=O)N[C@@H](Cc2ccc(O)cc2)C(=O)N[C@@H](CCCC)C(=O)N[C@@H](CC(=O)O)C(=O)N[C@@H](CCCNC(=N)N)C(=O)N[C@@H](CC(C)C)C(=O)N[C@@H](CCCCC)C(=O)N2CCC[C@H]2C(=O)N[C@@H](C(C)C)C(=O)N[C@@H](CC(=O)O)C(=O)N[C@H](C(=O)N[C@@H](CO)C(N)=O)CSCC(=O)N[C@@H](Cc2cccc(C)c2)C(=O)N[C@@H](Cc2ccc(O)cc2)C(=O)N[C@@H](CC(=O)O)C1=O [compound 1437] ({CH2CO}-[Phe(3-Me)]YD[NHexGly]Y[Nle]DRL[Ahp(2)]PVDCS-NH2; thioether N-14)
8 | 22.4 | CCCCCCN1CC(=O)N[C@@H](Cc2ccc(O)cc2)C(=O)N[C@@H](CCCC)C(=O)N[C@@H](CC(=O)O)C(=O)N[C@@H](CCCNC(N)=O)C(=O)N(C)[C@@H](CCCC)C(=O)N[C@@H](CCCCC)C(=O)N2CCC[C@H]2C(=O)N[C@@H](C(C)C)C(=O)N[C@@H](CC(=O)O)C(=O)N[C@H](C(=O)N[C@@H](CC(=O)O)C(N)=O)CSCC(=O)N[C@@H](Cc2cccc(C)c2)C(=O)N[C@@H](Cc2c[nH]c3ccccc23)C(=O)N[C@@H](CC(=O)O)C1=O [compound 1438] ({CH2CO}-[Phe(3-Me)]WD[NHexGly]Y[Nle]D[Cit][NMeNle][Ahp(2)]PVDCD-NH2; thioether N-14)
9 | 9.3 | CCCCCCN1CC(=O)N[C@@H](Cc2ccc(O)cc2)C(=O)N[C@@H](CCCC)C(=O)N[C@@H](CC(=O)O)C(=O)N[C@@H](CCCN)C(=O)N(C)[C@@H](CCCC)C(=O)N[C@@H](CCCCC)C(=O)N2CCC[C@H]2C(=O)N[C@@H](C(C)C)C(=O)N[C@@H](CC(=O)O)C(=O)N[C@H](C(=O)N[C@@H](CC(=O)O)C(N)=O)CSCC(=O)N[C@@H](Cc2cccc(C)c2)C(=O)N[C@@H](Cc2c[nH]c3ccccc23)C(=O)N[C@@H](CC(=O)O)C1=O [compound 1439] ({CH2CO}-[Phe(3-Me)]WD[NHexGly]Y[Nle]D[Orn][NMeNle][Ahp(2)]PVDCD-NH2; thioether N-14)
10 | 14.8 | CCCCCCN1CC(=O)N[C@@H](Cc2ccc(O)cc2)C(=O)N[C@@H](CCCC)C(=O)N[C@@H](CC(=O)O)C(=O)N[C@@H](CCCNC(=N)N)C(=O)N(C)[C@@H](CCCC)C(=O)N[C@@H](CCCCC)C(=O)N2CCC[C@H]2C(=O)N[C@@H](C(C)C)C(=O)N[C@@H](CC(=O)O)C(=O)N[C@H](C(=O)N[C@@H](CC(=O)O)C(N)=O)CSCC(=O)N[C@@H](Cc2cccc(C)c2)C(=O)N[C@@H](Cc2c[nH]c3ccccc23)C(=O)N[C@@H](CC(=O)O)C1=O [compound 1440] ({CH2CO}-[Phe(3-Me)]WD[NHexGly]Y[Nle]DR[NMeNle][Ahp(2)]PVDCD-NH2; thioether N-14)
11 | 10.2 | CCCCCCN1CC(=O)N[C@@H](Cc2ccc(O)cc2)C(=O)N[C@@H](CCCCC)C(=O)N[C@@H](CC(N)=O)C(=O)N[C@@H](CCCNC(=N)N)C(=O)N(C)[C@@H](CCCC)C(=O)N[C@@H](CCCCC)C(=O)N2CCC[C@H]2C(=O)N[C@@H](C(C)C)C(=O)N[C@@H](CC(=O)O)C(=O)N[C@H](C(=O)NCC(=O)O)CSCC(=O)N[C@@H](Cc2cccc(C)c2)C(=O)N[C@@H](Cc2c[nH]c3ccccc23)C(=O)N[C@@H](CC(=O)O)C1=O [compound 1441] ({CH2CO}-[Phe(3-Me)]WD[NHexGly]Y[Ahp(2)]NR[NMeNle][Ahp(2)]PVDCG-OH; thioether N-14)
12 | 27.7 | CCCCCCN1CC(=O)N[C@@H](Cc2ccc(O)cc2)C(=O)N[C@@H](CCCC)C(=O)N[C@@H](CC(N)=O)C(=O)N[C@@H](CCCNC(=N)N)C(=O)N(C)[C@@H](CCCC)C(=O)N[C@@H](CCCCC)C(=O)N2CCC[C@H]2C(=O)N[C@@H](C(C)C)C(=O)N[C@@H](CC(=O)O)C(=O)N[C@H](C(=O)NCC(=O)O)CSCC(=O)N[C@@H](Cc2cccc(C)c2)C(=O)N[C@@H](Cc2c[nH]c3ccccc23)C(=O)N[C@@H](CC(=O)O)C1=O [compound 1442] ({CH2CO}-[Phe(3-Me)]WD[NHexGly]Y[Nle]NR[NMeNle][Ahp(2)]PVDCG-OH; thioether N-14)
13 | 21.2 | CCCCCCN1CC(=O)N[C@@H](Cc2ccc(O)cc2)C(=O)N[C@@H](CCCC)C(=O)N[C@@H](CC(N)=O)C(=O)N[C@@H](CCCNC(N)=O)C(=O)N(C)[C@@H](CCCC)C(=O)N[C@@H](CCCCC)C(=O)N2CCC[C@H]2C(=O)N[C@@H](C(C)C)C(=O)N[C@@H](CC(=O)O)C(=O)N[C@H](C(=O)NCC(=O)O)CSCC(=O)N[C@@H](Cc2cccc(C)c2)C(=O)N[C@@H](Cc2c[nH]c3ccccc23)C(=O)N[C@@H](CC(=O)O)C1=O [compound 1443] ({CH2CO}-[Phe(3-Me)]WD[NHexGly]Y[Nle]N[Cit][NMeNle][Ahp(2)]PVDCG-OH; thioether N-14)
14 | 13.3 | CCCCCCN1CC(=O)N[C@@H](Cc2ccc(O)cc2)C(=O)N[C@@H](CCCCC)C(=O)N[C@@H](CC(N)=O)C(=O)N[C@@H](CCCNC(=N)N)C(=O)N(C)[C@@H](CCCC)C(=O)N[C@@H](CCCCC)C(=O)N2CCC[C@H]2C(=O)N[C@@H](C(C)C)C(=O)N[C@@H](CC(=O)O)C(=O)N[C@H](C(=O)N[C@@H](CO)C(=O)O)CSCC(=O)N[C@@H](Cc2cccc(C)c2)C(=O)N[C@@H](Cc2c[nH]c3ccccc23)C(=O)N[C@@H](CC(=O)O)C1=O [compound 1444] ({CH2CO}-[Phe(3-Me)]WD[NHexGly]Y[Ahp(2)]NR[NMeNle][Ahp(2)]PVDCS-OH; thioether N-14)
15 | 9.9 | CCCCCCN1CC(=O)N[C@@H](Cc2ccc(O)cc2)C(=O)N[C@@H](CCCC)C(=O)N[C@@H](CC(=O)O)C(=O)N[C@@H](CCCNC(=N)N)C(=O)N(C)[C@@H](CCCC)C(=O)N[C@@H](CCCCC)C(=O)N2CCC[C@H]2C(=O)N[C@@H](C(C)C)C(=O)N[C@@H](CC(=O)O)C(=O)N[C@H](C(=O)N[C@@H](CO)C(N)=O)CSCC(=O)N[C@@H](Cc2cccc(C)c2)C(=O)N[C@@H](Cc2c[nH]c3ccccc23)C(=O)N[C@@H](CC(=O)O)C1=O [compound 1445] ({CH2CO}-[Phe(3-Me)]WD[NHexGly]Y[Nle]DR[NMeNle][Ahp(2)]PVDCS-NH2; thioether N-14)
